Test results reported in publication PMC12951568, “Identifying Structural Factors Governing the Photodynamic Activity of Phthalocyanines” (Journal of Medicinal Chemistry, 2026).
Read-outs that look alike come from different tables or passages of the source.

What was measured:
[1] = Absorption and fluorescence emission spectra in DMF; format: physicochemical; details: in DMF
Experimental: An absorption spectrum of 2.475 mL of solvent (water, DMF, or PBS) was taken (i.e., absorption spectrum of baseline); then, 25 μL of stock solution was added to reach the final concentration of 1 μM in the cuvette, and the absorption and emission spectra were taken. Baseline of the solvent was subtracted from the obtained absorption spectrum to get the final absorption spectrum of the sample.

[2] = system: MCF-7 (human breast adenocarcinoma); assay: Photodynamic activity (phototoxicity, neutral red uptake) on MCF-7; format: cell-based; details: 12 h incubation, Xe-lamp 15 min, λ > 570 nm, 11.2 J/cm^2, mean ± SD, t.w. = this work
Experimental: (§1) Detailed in vitro studies involving subcellular localization and determination of the EC50 in three different cell lines (human cervical carcinoma–HeLa, human breast adenocarcinoma–MCF-7, and human skin melanoma–SK-MEL-28) were performed. A broadband light source (ozone-free 450 W Xe-lamp, Newport) equipped with the long-pass filter Schott OG570 was used (12.4 mW/cm^2, 15 min, 11.2 J/cm^2).
(§2) For the cytotoxicity experiments (phototoxicity), cells were seeded at 100 μL per well into 96-well plates (TPP, Switzerland) at a density of 7.5 × 10^3 (HeLa) or 1.0 × 10^4 (MCF-7 and SK-MEL-28) cells per well. Cells were left to grow for 24 h (until they reached confluency) in a controlled environment of a CO2 incubator (37 °C, 5% CO2 atmosphere, constant high humidity). Subsequently, studied compounds were added in a wide concentration range and incubated with the cells for 12 h. Cells were washed; fresh cell culture medium was added, and the cells were irradiated using a 450 W Xe lamp (Newport, USA). The lamp was equipped with a long pass filter (Newport OG570) and an 8 cm water filter (λ > 570 nm, 12.4 mW/cm^2, 15 min, 11.2 J/cm^2). Cellular viability was assessed after an additional 24 h by the neutral red (NR; Sigma, Merck, USA) uptake assay. At least three independent experiments, each in triplicate, were performed. The soluble NR was measured at λ = 540 nm using a Tecan Infinite 200 M plate reader (Tecan, Austria). The viability of each experimental group was expressed as the percentage of the untreated cells (100% viability) after subtraction of the signal from cells treated with a lethal dose of hydrogen peroxide (0% viability). […] EC50 values were calculated, and graphs were created by using GraphPad Prism 10.3.1 (Graph Pad software, USA).

[3] = biological target: bovine serum albumin (BSA) (Bos taurus, UniProt P02769); assay: Interaction with bovine serum albumin (absorption and emission spectra in PBS); format: binding; details: 1 μM Pc in PBS, BSA 17.5, 35 and 100 μM
Chain of bovine serum albumin (BSA) (P02769 25-607): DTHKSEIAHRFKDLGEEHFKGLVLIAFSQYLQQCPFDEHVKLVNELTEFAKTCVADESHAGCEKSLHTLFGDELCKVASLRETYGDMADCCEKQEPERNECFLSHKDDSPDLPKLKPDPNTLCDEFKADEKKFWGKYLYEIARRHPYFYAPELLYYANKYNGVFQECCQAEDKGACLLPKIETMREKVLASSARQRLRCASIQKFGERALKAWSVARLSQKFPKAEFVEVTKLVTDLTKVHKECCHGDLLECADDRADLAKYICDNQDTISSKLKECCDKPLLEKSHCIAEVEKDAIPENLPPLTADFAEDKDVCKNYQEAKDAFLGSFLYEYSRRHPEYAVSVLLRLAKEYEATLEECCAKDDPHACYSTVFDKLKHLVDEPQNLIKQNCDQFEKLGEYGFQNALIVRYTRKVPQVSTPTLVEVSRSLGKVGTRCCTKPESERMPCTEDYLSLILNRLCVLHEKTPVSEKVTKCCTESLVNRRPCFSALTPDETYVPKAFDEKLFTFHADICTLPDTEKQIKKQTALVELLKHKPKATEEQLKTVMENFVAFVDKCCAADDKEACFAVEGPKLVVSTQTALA

[4] = Log P, partition between n-octanol and PBS; format: physicochemical; details: partition coefficient between 1-octanol and PBS
Experimental: 400 μL portion of n-octanol and 400 μL of PBS buffer were mixed in a plastic Eppendorf vial. Then, 20 μL of the 100 μM stock solution of the sample (see above) was added to this mixture, vortexed for 5 min at rt, and then centrifuged for 10 min (10 000 rpm, rt). 50 μL of each of these layers was taken into 2.5 mL of DMF in a quartz cuvette, and their emission spectra (excitation wavelengths in Table ) were recorded. The log P value was then computed using the area under the curve of the emission spectra of n-octanol (F oct) and PBS buffer (F PBS) layers as follows: logP=log(Foct/FPBS) Triplicate measurements were performed, and the data reported are the mean of the obtained results.

[5] = Fluorescence lifetime in DMF; format: physicochemical
Description: 1 Photophysical Data of Investigated Derivatives in DMF ^a | column: τF1/ns; τF2/ns

[6] = system: HeLa (human cervical carcinoma); assay: Photodynamic activity (phototoxicity, neutral red uptake) on HeLa; format: cell-based; details: 12 h incubation, Xe-lamp 15 min, λ > 570 nm, 11.2 J/cm^2, mean ± SD, t.w. = this work
Experimental: as §1, §2

[7] = Fluorescence quantum yield, comparative method; format: physicochemical; details: in DMF; ZnPc as reference
Experimental: The fluorescence quantum yields (ΦF) were determined by a comparative method with ZnPc as the reference (ΦF = 0.32 in THF). The ΦF values were calculated using the following formula: ϕFS=ϕFR(F^S/F^R)(1−10^−A^R/1−10^−A^S)(η^S/η^R)^2 where F is the integrated area under the emission spectrum and A is the absorbance at the excitation wavelength. Superscripts R and S indicate the reference and sample, respectively. η stands for the refractive index of the solvent. Absorption in the Q-band was kept below 0.05 to eliminate the inner filter effect. Excitation wavelengths were the same as those used for emission spectra (see above). The emission wavelengths were set to their emission maxima to avoid exceeding the detector limit with stimated error ± 15%.

[8] = system: SK-MEL-28 (human skin melanoma); assay: Photodynamic activity (phototoxicity, neutral red uptake) on SK-MEL-28; format: cell-based; details: 12 h incubation, Xe-lamp 15 min, λ > 570 nm, 11.2 J/cm^2, mean ± SD, t.w. = this work
Experimental: as §1, §2

[9] = Quantum yield of singlet oxygen production, comparative method with DPBF scavenger; format: physicochemical; details: in DMF, ZnPc as reference
Experimental: Eight μL of the 100 μM stock solution of the dye in DMF (or DMF + water or water; see above) was added. A xenon lamp (100 W, ozone free XE DC short arc lamp, New port) was used to irradiate the sample while stirring. The incident light was filtered through a water filter (6 cm) and cut off filter OG530 eliminating heat and light under 523 nm, respectively. […] The decrease of DPBF in solution with irradiation time was monitored at 415 nm. The values of ΦΔ of the dyes were calculated by the following equation: φΔS=φΔ[…] is the slope of the plot of the dependence of ln([…] 0 and A t being the absorbances of the DPBF at 415 nm before irradiation and after irradiation time t, respectively. I aT is the total amount of light absorbed by the dye sample. Superscripts R and S indicate the reference and sample, respectively. I aT is calculated as a sum of intensities of the absorbed light I a at wavelengths from 523 to 850 nm (step 0.5 nm). Light under 523 nm is completely filtered by an OG530 filter, and light above 850 nm is not absorbed by the studied dye sample. I a at a given wavelength is calculated using Beer-Lambert'[…]) where I 0 is transmittance of the filter at the given wavelength and A is the absorbance of the dye at this wavelength. All experiments were performed three times, and the data presented is the mean value of the three obtained results with estimated error ± 10%.

[10] = system: HeLa (human cervical carcinoma); details: 12 h incubation, Xe-lamp 15 min, λ > 570 nm, 11.2 J/cm^2; mean ± SD; determined previously under the same conditions at the same workplace and published; ref number not given; read-out: EC50 (nM) HeLa; cited from earlier work
[11] = system: MCF-7 (human breast adenocarcinoma); set-up: method as in number not printed in Table 2; details: 12 h incubation, Xe-lamp 15 min, λ > 570 nm, 11.2 J/cm^2; mean ± SD; determined previously under the same conditions at the same workplace and published; ref number not given; cited from earlier work

SMILES	ε, extinction coefficient [1]	λF, fluorescence emission maximum [1]	EC50 ([2]; Homo sapiens, MCF7, light or radiation study)	Interaction with BSA: disaggregation/monomerization and changes in absorption and fluorescence emission spectra [3]	logP ([4]; n-octanol/PBS buffer)	τF1, fluorescence lifetime (relative amplitude in brackets) [5]	τF2, fluorescence lifetime (relative amplitude in brackets) [5]	EC50 ([6]; Homo sapiens, HeLa, light or radiation study)	ΦF, fluorescence quantum yield [7]	EC50 ([8]; Homo sapiens, SK-MEL-28, light or radiation study)	ΦΔ, quantum yield of singlet oxygen production [9]	EC50 [10]	λA, absorption maximum in the Q-band [1]	EC50 [11]	Log P [4]	EC50 [8]	EC50 [2]	EC50 [6]
O=S(=O)([O-])c1ccc2c(c1)-c1nc-2nc2[nH]c(nc3nc(nc4[nH]c(n1)c1ccccc41)-c1ccc(S(=O)(=O)[O-])cc1-3)c1ccc(S(=O)(=O)[O-])cc21.[Na+].[Na+].[Na+] [A9H]	104 650 M^–1cm^–1	703 nm	347 ± 125 nM	partial	-1.35	1.97 (18%) ns	3.87 (82%) ns	85 ± 7 nM	0.22	300 ± 77 nM	0.19	–	–	–	–	–	–	–
Cc1cc(Cn2cc[n+](C)c2)c(Oc2c3c(c(C)c(C)[n+]2C)C2=NC3=Nc3c4cc(SC(C)(C)C)c(SC(C)(C)C)cc4c4[n]3[Zn][n]3c(c5cc(SC(C)(C)C)c(SC(C)(C)C)cc5c3=N2)=NC2=NC(=N4)c3cc(SC(C)(C)C)c(SC(C)(C)C)cc32)c(Cn2cc[n+](C)c2)c1.[I-].[I-].[I-] [C2Zn]	177 880 M^–1cm^–1	718 nm	–	–	–	1.67 ns	–	–	0.30	–	0.70	105 ± 34 nM	708 nm	65 ± 8 nM	1.38	62 ± 11 nM	–	–
CSc1cc2c(cc1SC)C1=Nc3c4cc(SC)c(SC)cc4c4[n]3[Zn][n]3c(c5cc(SC)c(SC)cc5c3=NC2=N1)=NC1=NC(=N4)c2cc(Oc3c(Cn4cc[n+](C)c4)cc(C)cc3Cn3cc[n+](C)c3)c(Oc3c(Cn4cc[n+](C)c4)cc(C)cc3Cn3cc[n+](C)c3)cc21.[I-].[I-].[I-].[I-] [C4Zn]	106 360 M^–1cm^–1	709 nm	–	–	–	–	–	–	0.21	–	0.44	79 ± 20 nM	697 nm	61 ± 9 nM	0.62	108 ± 24 nM	–	–
Cc1cc(Cn2c[n+](C)cn2)c(Oc2cc3c(cc2Oc2c(Cn4c[n+](C)cn4)cc(C)cc2Cn2c[n+](C)cn2)C2=Nc4c5cc(Oc6c(Cn7c[n+](C)cn7)cc(C)cc6Cn6c[n+](C)cn6)c(Oc6c(Cn7c[n+](C)cn7)cc(C)cc6Cn6c[n+](C)cn6)cc5c5[n]4[Zn][n]4c(c6cc(Oc7c(Cn8c[n+](C)cn8)cc(C)cc7Cn7c[n+](C)cn7)c(Oc7c(Cn8c[n+](C)cn8)cc(C)cc7Cn7c[n+](C)cn7)cc6c4=NC4=NC(=N5)c5cc(Oc6c(Cn7c[n+](C)cn7)cc(C)cc6Cn6c[n+](C)cn6)c(Oc6c(Cn7c[n+](C)cn7)cc(C)cc6Cn6c[n+](C)cn6)cc54)=NC3=N2)c(Cn2c[n+](C)cn2)c1.[I-].[I-].[I-].[I-].[I-].[I-].[I-].[I-].[I-].[I-].[I-].[I-].[I-].[I-].[I-].[I-] [C13Zn]	236 490 M^–1cm^–1	687 nm	–	–	–	0.60 (4%) ns	2.27 (96%) ns	–	0.20	–	0.37	12 ± 4 nM	679 nm	5.3 ± 0.8 nM	–3.47	56 ± 6 nM	–	–
NCCc1ccc(Oc2cccc3c2C2=NC3=Nc3c4ccccc4c4[n]3[Zn][n]3c(c5ccccc5c3=N2)=NC2=NC(=N4)c3ccccc32)cc1 [C15Zn]	136 590 M^–1cm^–1	684 nm	–	Partial monomerization	–	1.23 (7%) ns	2.96 (93%) ns	–	0.20	–	0.53	–	675 nm	–	3.32	25 ± 6 nM	50 ± 8 nM	74 ± 22 nM
